Experiments:
mouse [1] = details: Subchronic oral toxicity in rodents, b6c3f1, Feed, dose end: 6 week, group: systemic, systemic / in life observation / mortality / mortality
rat [2] = details: Subchronic oral toxicity in rodents, fischer, Feed, dose end: 8 week, group: systemic
mouse [3] = details: Carcinogenicity, b6c3f1, Oral, Feed, dose end: 80 week, group: systemic
rat [4] = details: Carcinogenicity; fischer; Oral; Feed; dose end: 105 week; group: systemic; systemic / in life observation / clinical signs / convulsions + systemic / in life observation / clinical signs / nervousness + systemic / …
rat [5] = details: Developmental neurotoxicity study; Oral; Feed; dose end: 90 PND; group: cannot be grouped; systemic / organ weight / liver / relative to body weight + systemic / pathology microscopic / liver / vacuolization
rat [6] = details: Subchronic oral toxicity in rodents, other, Feed, dose end: 6 week, group: systemic
mouse [7] = details: Multigenerational reproductive toxicity study; other; Oral; Feed; dose end: 1 generation; group: reproductive; reproductive / offspring survival early / litter size / litter size
rat [8] = details: Carcinogenicity, other, Oral, Feed, dose end: 80 week, group: systemic
dog [9] = details: Chronic toxicity, beagle, Oral, Capsule, dose end: 52 week, group: systemic
mouse [10] = details: Carcinogenicity, cd1, Oral, Feed, dose end: 18 month, group: systemic
dog [11] = details: Subchronic oral toxicity in nonrodent, beagle, Capsule, dose end: 13 week, group: systemic
rat [12] = details: Multigenerational reproductive toxicity study, Other, Oral, Feed, dose end: 2 generation
rat [13] = details: Subchronic oral toxicity in rodents, fischer, Feed, dose end: 13 week, group: systemic, systemic / organ weight / adrenal gland / nos + systemic / organ weight / kidney / nos + systemic / organ weight / liver / nos + systemic / …
mouse [14] = details: Subchronic oral toxicity in rodents, cd1, Feed, dose end: 13 week, group: systemic
[15] = systemic / pathology microscopic / brain / necrosis + systemic / in life observation / body weight / body weight + systemic / in life …
[16] = systemic / in life observation / clinical signs / excitation + systemic / in life observation / clinical signs / tremors
[17] = systemic / in life observation / clinical signs / excitation + systemic / in life observation / clinical signs / tremors + systemic / in …
[18] = systemic / in life observation / body weight / body weight
[19] = systemic / in life observation / body weight / body weight + systemic / in life observation / mortality / mortality
[20] = systemic / in life observation / body weight / body weight + systemic / in life observation / clinical signs / [other] + systemic / in life …
[21] = systemic / pathology microscopic / liver / pigmentation + systemic / clinical chemistry / alkaline phosphatase (alp/alk) / alkaline …
[22] = systemic / organ weight / liver / relative to body weight
[23] = systemic / organ weight / liver / relative to body weight + systemic / organ weight / liver / absolute
[24] = systemic / clinical chemistry / alkaline phosphatase (alp/alk) / alkaline phosphatase (alp/alk) + systemic / pathology gross / liver / …
[25] = systemic / organ weight / prostate / relative to body weight
[26] = group: offspring, systemic / in life observation / body weight / offspring (pup) weight + systemic / pathology gross / liver / discolored + systemic / …
[27] = group: parental, systemic / organ weight / liver / relative to body weight
[28] = group: parental, systemic / organ weight / liver / relative to body weight + systemic / in life observation / body weight / body weight + systemic / in life …
[29] = systemic / pathology microscopic / liver / hypertrophy
[30] = systemic / pathology microscopic / liver / hypertrophy + systemic / clinical chemistry / alanine aminotransferase (alt/sgpt) / alanine …

SMILES: ClC1=C(Cl)[C@]2(Cl)[C@@H]3[C@@H]4C[C@@H]([C@H]5O[C@@H]45)[C@@H]3[C@@]1(Cl)C2(Cl)Cl [Dieldrin]
- LEL (mouse [1]): 3 mg/kg/day
- LOAEL (mouse [1]): > 6 mg/kg/day
- NEL (mouse [1]): 1.5 mg/kg/day
- NOAEL (mouse [1]): ≥ 6 mg/kg/day
- LOAEL (rat [2]; systemic / pathology microscopic / brain / necrosis): 5 mg/kg/day
- LEL (rat [2]; systemic / pathology microscopic / brain / necrosis + systemic / in life observation / body weight / body weight): 5 mg/kg/day
- NEL (rat [2]; [15]): 2.5 mg/kg/day
- NOAEL (rat [2]; [15]): 2.5 mg/kg/day
- LOAEL (mouse [3]; [16]): 0.375 mg/kg/day
- NOAEL (mouse [3]; [16]): < 0.375 mg/kg/day
- LEL (mouse [3]; [17]): 0.375 mg/kg/day
- NEL (mouse [3]; [17]): < 0.375 mg/kg/day
- LEL (rat [4]): 2.5 mg/kg/day
- LOAEL (rat [4]): > 2.5 mg/kg/day
- NEL (rat [4]): 0.5 mg/kg/day
- NOAEL (rat [4]): ≥ 2.5 mg/kg/day
- LEL (rat [5]): 0.00035 mg/kg/day
- LOAEL (rat [5]): > 0.00035 mg/kg/day
- NEL (rat [5]): < 0.00035 mg/kg/day
- NOAEL (rat [5]): ≥ 0.00035 mg/kg/day
- LEL (rat [6]; [18]): 2 mg/kg/day
- NEL (rat [6]; [18]): < 2 mg/kg/day
- LOAEL (rat [6]; [19]): > 16 mg/kg/day
- NOAEL (rat [6]; [19]): ≥ 16 mg/kg/day
- LEL (mouse [7]): 0.75 mg/kg/day
- LOAEL (mouse [7]): > 0.75 mg/kg/day
- NEL (mouse [7]): < 0.75 mg/kg/day
- NOAEL (mouse [7]): ≥ 0.75 mg/kg/day
- LEL (rat [8]; [20]): 1.45 mg/kg/day
- NEL (rat [8]; [20]): < 1.45 mg/kg/day
- LOAEL (rat [8]; systemic / in life observation / clinical signs / convulsions): 3.25 mg/kg/day
- NOAEL (rat [8]; systemic / in life observation / clinical signs / convulsions + systemic / in life observation / body weight / body weight + systemic / in …): 1.45 mg/kg/day

SMILES: CSC(=O)c1c(C(F)F)nc(C(F)(F)F)c(C(=O)SC)c1CC(C)C [Dithiopyr]
- LOAEL (dog [9]; systemic / pathology microscopic / liver / pigmentation): 5 mg/kg/day
- LEL (dog [9]; [21]): 5 mg/kg/day
- NEL (dog [9]; [21]): 0.5 mg/kg/day
- NOAEL (dog [9]; [21]): 0.5 mg/kg/day
- LEL (mouse [10]; [22]): 3.27 mg/kg/day
- LOAEL (mouse [10]; [22]): 3.27 mg/kg/day
- NEL (mouse [10]; [23]): 0.31 mg/kg/day
- NOAEL (mouse [10]; [23]): 0.31 mg/kg/day
- LOAEL (dog [11]; [24]): 10 mg/kg/day
- NOAEL (dog [11]; [24]): 1 mg/kg/day
- LEL (dog [11]; [25]): 1 mg/kg/day
- NEL (dog [11]; [25]): < 1 mg/kg/day
- LEL (rat [12]; [26]): 19.9 mg/kg/day
- LOAEL (rat [12]; [26]): > 218 mg/kg/day
- NEL (rat [12]; [26]): 2 mg/kg/day
- NOAEL (rat [12]; [26]): ≥ 218 mg/kg/day
- LEL (rat [12]; [27]): 16.4 mg/kg/day
- LOAEL (rat [12]; [27]): 16.4 mg/kg/day
- NEL (rat [12]; [28]): 1.7 mg/kg/day
- NOAEL (rat [12]; [28]): 1.7 mg/kg/day
- LEL (rat [13]): 6.62 mg/kg/day
- LOAEL (rat [13]): 6.62 mg/kg/day
- NEL (rat [13]): 0.662 mg/kg/day
- NOAEL (rat [13]): 0.662 mg/kg/day
- LEL (mouse [14]; [29]): 11.8 mg/kg/day
- LOAEL (mouse [14]; [29]): 11.8 mg/kg/day
- NEL (mouse [14]; [30]): 1.16 mg/kg/day
- NOAEL (mouse [14]; [30]): 1.16 mg/kg/day
